Experiments:
human ETA receptors = molecular target: T1, human ETA receptors (Homo sapiens, UniProt P25101); assay: Endothelin binding inhibition, Binding Test #1: competition with 125I-ET-1 for ETA receptors on TE 671 cell membranes
T1 construct: endogenous in cells; host or cells: TE 671 cells (ATCC HTB 139), membrane preparation
T1 sequence (P25101 21-427): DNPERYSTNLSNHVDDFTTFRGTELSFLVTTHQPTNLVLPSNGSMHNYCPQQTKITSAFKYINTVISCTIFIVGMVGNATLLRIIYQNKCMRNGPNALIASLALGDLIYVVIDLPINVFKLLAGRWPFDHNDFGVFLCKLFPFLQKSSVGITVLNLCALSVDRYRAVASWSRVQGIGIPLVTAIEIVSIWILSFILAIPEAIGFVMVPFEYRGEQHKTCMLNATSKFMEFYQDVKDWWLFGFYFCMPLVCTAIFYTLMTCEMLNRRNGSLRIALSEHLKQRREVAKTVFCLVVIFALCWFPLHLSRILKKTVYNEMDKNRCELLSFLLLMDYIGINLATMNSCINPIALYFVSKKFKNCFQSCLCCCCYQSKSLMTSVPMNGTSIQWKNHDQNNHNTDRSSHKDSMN

human ETB receptor = molecular target: T2, human ETB receptor (Homo sapiens, UniProt P24530); assay: Endothelin binding inhibition, Binding Test #2: competition with 125I-ET-1 for ETB receptors on transfected COS7 cell membranes
T2 construct: expressed in transfected cells; host or cells: COS7 cells
T2 sequence (P24530 27-442): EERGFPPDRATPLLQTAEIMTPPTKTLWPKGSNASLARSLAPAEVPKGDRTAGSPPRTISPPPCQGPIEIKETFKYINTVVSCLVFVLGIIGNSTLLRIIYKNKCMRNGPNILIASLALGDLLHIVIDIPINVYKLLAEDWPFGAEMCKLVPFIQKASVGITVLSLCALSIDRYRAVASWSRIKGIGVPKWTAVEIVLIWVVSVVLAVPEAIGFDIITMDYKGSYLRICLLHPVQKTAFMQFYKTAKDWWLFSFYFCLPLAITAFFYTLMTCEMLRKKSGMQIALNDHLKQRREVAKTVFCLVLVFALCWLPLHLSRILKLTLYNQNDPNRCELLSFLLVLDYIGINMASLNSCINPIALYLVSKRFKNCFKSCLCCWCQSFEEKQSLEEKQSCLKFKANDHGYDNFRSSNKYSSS
Procedure, shortened: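 Membranes from COS7 cells transfected with human ETB receptor, prepared in HEPES pH 7.4 with aprotinin, MnCl2/DNase treatment at 37° C for 30 min. Test compounds compete with 125I-labeled ET-1 for receptor binding; membrane used at 1 μg/50 μL binding buffer.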

[1] = incubation at 24° C. (values marked †)
[2] = incubation at 4° C. (values without †)

Row | Molecule | IC50 (human ETA receptors; [1]) [nM] | IC50 (human ETB receptor; [1]) [nM] | IC50 (human ETA receptors; [2]) [nM] | IC50 (human ETB receptor; [2]) [nM]
1 | 3-[N-(Benzo-2,1,3-thiadiazol-5-yl)aminosulfonyl]thiophene-2-carboxylic acid, 3-cyanomethyl-2,4,6-trimethylanilide | 0.66 | 9550 | – | –
2 | COc1ccc(NC(=O)c2sccc2S(=O)(=O)Nc2onc(C)c2Cl)c(C)c1 [N-(4-chloro-3-methyl-5-isoxazolyl)-2-[4-methoxy-2-methylphenyl)aminocarbonyl]thiophene-3-sulfonamide] | 27 | 140 | – | –
3 | Cc1ccc(-c2ccc(S(=O)(=O)Nc3onc(C)c3Br)s2)s1 [N-(4-bromo-3-methyl-5-isoxazolyl)-5-(5-methyl-2-thienyl)thiophene-2-sulfonamide] | 17000 | 210 | – | –
4 | Cc1noc(NS(=O)(=O)c2ccsc2C(O)c2ccccc2)c1Br (stereo not drawn) [N-(4-bromo-3-methyl-5-isoxazolyl)-2-(α-hydroxybenzyl)thiophene-3-sulfonamide] | – | – | 337 | 9370
5 | N-(4-chloro-3-methyl-5-isoxazolyl)-2-phenylbenzo[b]thiophene sulfonamide | 932 | 46800 | – | –
6 | COc1ccc(CC(=O)c2sccc2S(=O)(=O)Nc2onc(C)c2Cl)cc1 [N-(4-chloro-3-methyl-5-isoxazolyl)-2-[(4-methoxyphenyl)acetyl]thiophene-3-sulfonamide] | 43 | 10100 | – | –
7 | CC(=O)OCc1c(C)cc(C)c(NC(=O)c2sccc2S(=O)(=O)Nc2noc(C)c2Cl)c1C [N-(4-chloro-5-methyl-3-isoxazolyl)-2-(3-acetoxymethyl-2,4,6-trimethylphenylaminocarbonyl)thiophene-3-sulfonamide] | 0.51 | 19700 | – | –
8 | Cc1cc2c(cc1CC(=O)c1sccc1S(=O)(=O)Nc1onc(C)c1C)OCO2 [N-(3,4-dimethyl-5-isoxazolyl)-2-[2-methyl-4,5-(methylenedioxy)phenylacetyl]thiophene-3-sulfonamide] | 3.28 | 34300 | – | –
9 | Cc1cc2c(cc1CC(=O)c1sccc1S(=O)(=O)Nc1noc(C)c1Cl)OCO2 [N-(4-chloro-5-methyl-3-isoxazolyl)-2-[2-methyl-4,5-(methylenedioxy)phenylacetyl]thiophene-3-sulfonamide] | 0.625 | 3690 | – | –
10 | Cc1noc(NS(=O)(=O)c2ccsc2C(=O)Nc2ccc(O)nn2)c1Br [N-(4-bromo-3-methyl-5-isoxazolyl)-2-[(3-hydroxyl-6-pyridazinyl)aminocarbonyl]thiophene-3-sulfonamide] | 66 | 81300 | – | –
11 | Cc1cc2c(cc1C=CCc1ccsc1S(=O)(=O)Nc1onc(C)c1Br)OCO2 [N-(4-bromo-3-methyl-5-isoxazolyl)-3-[2-methyl-4,5-(methylenedioxy)cinnamyl]thiophene-2-sulfonamide] | ~100 | ~6000 | – | –
12 | Cc1noc(NS(=O)(=O)c2sccc2Cc2ccccc2)c1Br [N-(4-bromo-3-methyl-5-isoxazolyl)-3-benzylthiophene-2-sulfonamide] | 1600 | 39000 | – | –
13 | Cc1noc(NS(=O)(=O)c2ccsc2C(=O)Nc2ccc3c(c2)OCO3)c1Br [N-(4-bromo-3-methyl-5-isoxazolyl)-2-[(3,4-methylenedioxyphenyl)aminocarbonyl]thiophene-3-sulfonamide] | 17 | 9800 | – | –
14 | CC(=O)OCCc1cc2c(cc1NC(=O)c1sccc1S(=O)(=O)Nc1onc(C)c1Cl)OCO2 [N-(4-chloro-3-methyl-5-isoxazolyl)-2-[3,4-(methylenedioxy)-6-(2-acetoxyethyl)phenylaminocarbonyl]thiophene-3-sulfonamide] | 4.5 | 25700 | – | –
15 | Cc1noc(NS(=O)(=O)c2c(Cc3ccc(Cl)cc3)sc3ccccc23)c1C [N-(3,4-dimethyl-5-isoxazolyl)-2-(4-chlorobenzyl)benzo[b]thiophene-3-sulfonamide] | 210 | 4700 | – | –
16 | Cc1cc(C)cc(CC(=O)c2sccc2S(=O)(=O)Nc2onc(C)c2Cl)c1 [N-(4-chloro-3-methyl-5-isoxazolyl)-2-(3,5-dimethylphenylacetyl)thiophene-3-sulfonamide] | 45 | 17700 | – | –
